Source: ChEMBL document CHEMBL1157390, “Aplysinoplides A-C, cytotoxic sesterterpenes from the marine sponge Aplysinopsis digitata” (J Nat Prod, 2008)
Values after ≈ are worked out from the molar mass of the structure shown. Active and inactive are the calls of the source. The calls are words filed in the database; no cut-off is given here.

Key:
[1] = molecular target: Phospholipase A2 (Bos taurus) (UniProt P00593); experiment: Inhibition of bovine pancreas PLA2 at 100 uM by pH-stat assay
[2] = system: P388; experiment: Cytotoxicity against mouse P388 cells after 96 hrs by MTT assay; type: functional, cell-based; details: P388, 96 h

Sequence of Phospholipase A2 (Bos taurus) (P00593 whole entry): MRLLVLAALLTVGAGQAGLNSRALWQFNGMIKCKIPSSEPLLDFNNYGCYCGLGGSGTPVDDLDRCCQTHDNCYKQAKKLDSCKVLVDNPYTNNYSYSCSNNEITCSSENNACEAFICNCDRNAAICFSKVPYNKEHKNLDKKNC

| SMILES | Activity [1] | IC50 [2] [µg/mL] |
| --- | --- | --- |
| CC1=C(CC/C(C)=C/CC/C(=C\CC(O)C2=CC(=O)OC2O)CO)C(C)(C)CCC1 (stereo unspecified) [APLYSINOPLIDE B] | inactive | 0.45 (≈ 1.08 µM) |
| CC1=C(CC/C(C)=C/CC/C(=C\C=C\C2=CC(=O)OC2O)CO)C(C)(C)CCC1 (stereo unspecified) [APLYSINOPLIDE A] | inactive | 0.45 (≈ 1.12 µM) |
| C/C(=C\CC/C(=C/CC1OC(=O)C=C1CO)CO)CCC1C(C)(C)CCCC1(C)O (stereo unspecified) [APLYSINOPLIDE C] | – | 11 (≈ 26.2 µM) |
| CC1=C(CC/C(C)=C/CCC2=CC[C@H](C3=CC(=O)O[C@H]3O)O[C@H]2O)C(C)(C)CCC1 | Active | – |
